Read-outs that look alike come from different tables or passages of the source.
What was measured:
HCV reporter replicon = HCV reporter replicon assay, antiviral activity (dual luciferase); type: cell-based; conditions: for EC50: Hepatitis C virus
Description: (§1) All compounds were tested in an HCV reporter replicon assay. Briefly, a reporter replicon containing Huh-7 hepatoma cells was grown in DMEM (Invitrogen, Carlsbad, Calif.) and seeded in 96-well black wall, clear-bottom plates (Costar®; Coming Incorporated). Cells were allowed to settle at 37° C., 5% CO2 for 30 minutes. The compounds were serially diluted in separate 96 well plates and […] of each concentration was added to the appropriate well in triplicate. The plates are incubated at 37° C., 5% CO2 for three days.
(§2) Following three days of incubation, the media was aspirated from the wells and cells are washed with 100 μl PBS. After removing the PBS, 20 μl of 1× Passive Lysis Buffer (Promega Corp., Madison, Wis.) is added to each well, and the cells are allowed to lyse at room temperature for 15 minutes. Antiviral activity and cytotoxicity is measured following lysis using the dual luciferase kit (Promega Corp., Madison, Wis.). The percent antiviral inhibition and percent cytotoxicity for each concentration is calculated after subtracting the background values of media only wells from wells containing cells, and subtratcting 100 from the percent ratio of the value in the compound well to the cell only control well.

in vitro = type: cell-based; conditions: human, three days incubation
Description: as §1, §2

[1] = Solubility (Sol.) reported with the replicon assay
[2] = 7-pt Assay, value marked (exp), read-out: EC50 (exp)
[3] = Huh-7, 72 h, Extended 8-pt Assay, replicon-containing Huh-7 cells, three days incubation, read-out: EC50
[4] = Huh-7, 72 h, 7-pt Assay, replicon-containing Huh-7 cells, three days incubation, read-out: EC50

Compound | CC50/EC50 (HCV reporter replicon; 7-pt Assay) | EC50 (HCV reporter replicon; [2]) [nM] | EC50 (HCV reporter replicon; [3]) [nM] | CC50 at 3 days (in vitro; 7-pt Assay) [nM] | CC50 at 3 days (in vitro; Extended 8-pt Assay) [nM] | Sol. ([1]; 7-pt Assay) [µM] | Sol. ([1]; 7-pt Assay, unit not given) | Sol. ([1]; Extended 8-pt Assay) [µM] | EC50 (HCV reporter replicon; [4]) [nM]
O=C(NO)[C@H]1CCCC[C@@H]1SCCc1ccc(-c2ccccc2)cc1 (relative stereo) [Example 6, trans-2-(Biphenyl-4-yl-ethylsulfanyl)cyclohexanecarboxylic Acid Hydroxyamide] | 3265 | 34 | 50 | 111000 | 99000 | >320 | 320 | >320 | 
O=C(NO)C1=C(SCCc2ccc(-c3ccccc3)cc2)CCCC1 [Example 1, 2-(2-Biphenyl-4-yl-ethylsulfanyl)-cyclohex-1-ene-carboxylic Acid Hydroxyamide] | 15 |  | 1600 | 32000 | 31000 | <320 | 100 | >320 | 2100
O=C(NO)[C@@H]1CCCC[C@@H]1SCCc1ccccc1 [Example 3] | 130 |  | 1900 | ≥ 320000 | 211000 | >320 | 320 | >320 | 2500
O=C(NO)[C@@H]1CCCC[C@H]1S(=O)(=O)CCc1ccccc1 [Example 5, trans-2-Phenylethanesulfonyl-cyclohexanecarboxylic Acid Hydroxyamide] | 1333 | 240 | 310 | > 320000 | > 320000 | >320 | 320 | >320 | 
COC(=O)c1ccc(NC(=O)[C@H](CC(C)C)NC(=O)[C@@H](CC(=O)NO)c2ccccc2)cc1 [Example 8, methyl 4-({N-[(2S)-4-(hydroxyamino)-4-oxo-2-phenylbutanoyl]-L-leucyl}amino)benzoate] | 218 |  | 1200 | > 320000 | > 320000 | <100 | 32 | <320 | 1500
CC(=O)N1CCN(S(=O)(=O)c2ccc(Oc3ccccc3)cc2)C(C(=O)NO)C1 (stereo not shown) [Example 9, 4-acetyl-N-hydroxy-1-[(4-phenoxyphenyl)sulfonyl]piperazine-2-carboxamide] | 835 | 97 | 18 | 81000 | 79000 | >320 | 320 | >320 | 
CC(C)(C)OC(=O)N1CCN(S(=O)(=O)c2ccc(Oc3ccccn3)cc2)[C@@H](C(=O)NO)C1 [Example 10, tert-butyl (3R)-3-[(hydroxyamino)carbonyl]-4-{[4-(pyridin-2-yloxy)phenyl]sulfonyl}piperazine-1-carboxylate] | 1937 | 150 | 190 | 294000 | 224000 | >320 | 320 | >320 | 
CS(=O)(=O)N1CCN(S(=O)(=O)c2ccc(Oc3ccc(F)cc3)cc2)[C@@H](C(=O)NO)C1 [Example 11, (2R)-1-{[4-(4-fluorophenoxy)phenyl]sulfonyl}-N-hydroxy-4-(methylsulfonyl)piperazine-2-carboxamide] | 444 | 27 | 49 | 12000 | 15000 | >320 | 320 | >320 | 
CC1(C)SCCN(S(=O)(=O)c2ccc(Oc3ccncc3)cc2)[C@H]1C(=O)NO [Example 12, (3S)—N-hydroxy-2,2-dimethyl-4-{[4-(pyridin-4-yloxy)phenyl]sulfonyl}thiomorpholine-3-carboxamide] | 880 |  | 260 | 320000 | > 320000 | >320 | 320 | >320 | 360
O=C(NO)C1CCCCN1S(=O)(=O)c1ccc(Sc2ccncc2)cc1 (stereo not shown) [Example 13, N-hydroxy-1{[4-(pyridin-4-ylthio)phenyl]sulfonyl}piperidine-2-carboxamide] | 667 |  | 350 | 293000 | 211000 | >320 | 320 | >320 | 440
Cc1cc(CSC(C)(C)[C@@H](NS(=O)(=O)c2ccc(Oc3ccc(Br)cc3)cc2)C(=O)NO)no1 [Example 14, N^2-{[4-(4-bromophenoxy)phenyl]sulfonyl}-N^1-hydroxy-3{[(5-methylisoxazol-3-yl)methyl]thio}-D-valinamide] | 49 |  | 1900 | 78000 | 41000 | >320 | 320 | <320 | 1570

— patent publication US20040229817A1, “Inhibitors of Hepatitis C virus, compositions and treatments using the same” (priority 2003, published 2004)
